Assay [1] concerns the target T1, VASP/EVH1 domain (Homo sapiens, UniProt P50552).
T1 construct: the EVH1 domain of a completely ^15N-labelled VASP protein
Description: Fluorescence titration of ligand peptides. Type of assay: binding. The procedure:
Using the synthetic compound 85, ligand peptides with partially or completely replaced proline sequences were synthesized and investigated for their interaction with the EVH1 domain (pp=building block 85). […] The binding affinities were determined using NMR titration, the kinetic Biacore method, or by means of fluorescence titration.

Assay [2] concerns the target T1, VASP/EVH1 domain. Description: Biacore (surface plasmon resonance) binding of ligand peptides. Conditions: Binding affinity (Biacore), initial measurements yet remaining to be verified.
Description: In this method the domain protein is immobilized on the surface of a sensor chip, while a solution of ligand peptide flows across the surface. By measuring the surface plasmon resonance that causes the refractive index to change, it is possible to monitor the binding kinetics in real-time so that the association and dissociation constants can also be determined.
For assay [3], the target named is T1, VASP/EVH1 domain. Description: NMR titration (15N-1H-HSQC) of the VASP/EVH1 domain with ligand peptide. Conditions: Binding affinity (NMR), VASP/EVH1 domain in solution; KD from change in chemical shift versus ligand peptide concentration.
Description: The interactions between the EVH1 domain of a completely ^15N-labelled VASP protein and the ligand peptides I and II was elucidated using multidimensional NMR-spectroscopic methods. To this end, the EVH1 domain in a solution was titrated with varying amounts of ligand peptide and investigated by recording ^15N-^1H-HSQC-NMR spectra each time. In the event of positive binding interaction, increasing the ligand concentration step by step (10, 20, 50, 100, 200, 500 and 1000 μM) results in a clearly recognizable shift of some domain signals, which can be used to calculate values for the binding constant at a later point in time.
A continuous equilibrium, i.e. [EVH1]-ligand (bound) ? [EVH1]+ligand (unbound), is present in solution so that, depending on the rate of interchange of the ligands, different NMR spectra are obtained (in analogy to the signals of —OH and —NH in the one-dimensional range).
When correlating the changes in the chemical shift of the cross-peaks with the binding strength between domain and ligand peptide, it is possible to calculate values for the binding constant by plotting the change in shift Δδ versus the ligand peptide concentration.
A further assay addresses Mena/EVH1 domain (Homo sapiens, UniProt Q8N8S7). Description: biochemical.
Assay [4] deals with T1, VASP/EVH1 domain. In kind it is binding.
Description: This can be seen in FIG. 2 wherein the class I EVH1 domain of the human VASP protein was investigated together with a short section from the ActA peptide (332[sequence]344).
(§1) Using a series of different test ligand peptides, it was also possible to gain an overview over the binding affinities.

Consider 5 compounds from patent US8242105B2, “Structural mimetics of proline-rich peptides and the pharmaceutical use thereof” (priority 2006, dated 2012).

No end group written: not given here.

T1 sequence (P50552 2-113): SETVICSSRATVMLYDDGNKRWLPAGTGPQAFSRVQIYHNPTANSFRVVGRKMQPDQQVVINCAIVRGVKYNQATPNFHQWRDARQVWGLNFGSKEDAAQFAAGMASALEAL
Mena/EVH1 domain, sequence (Q8N8S7 1-111 limits assumed): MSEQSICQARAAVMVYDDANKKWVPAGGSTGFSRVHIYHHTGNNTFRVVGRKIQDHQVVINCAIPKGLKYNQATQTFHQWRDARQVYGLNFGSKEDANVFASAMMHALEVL
Description for Mena/EVH1 domain: as §1

Take `CC(C)C[C@H](NC(=O)[C@H](CCC(=O)O)NC(=O)[C@H](CC(=O)O)NC(=O)[C@H](CCC(=O)O)NC(=O)[C@@H](NC(=O)[C@@H]1CC[C@@H]2C=C[C@H]3CCN(C(=O)[C@@H]4CCCN4C(=O)[C@@H]4CCCN4C(=O)[C@H](Cc4ccccc4)NC(=O)[C@H](CCC(=O)O)NC(=O)[C@H](Cc4ccccc4)NC(=O)[C@@H](N)CO)[C@@H]3C(=O)N21)[C@@H](C)O)C(=O)O` [SFEFPPppTEDEL]: the Kd on VASP/EVH1 domain [1] is 26 ± 5 µM.
For the compound `CC(C)C[C@H](NC(=O)[C@H](CCC(=O)O)NC(=O)[C@H](CC(=O)O)NC(=O)[C@H](CCC(=O)O)NC(=O)[C@@H](NC(=O)[C@@H]1CCCN1C(=O)[C@@H]1CC[C@@H]2C=C[C@H]3CCN(C(=O)[C@@H]4CCCN4C(=O)[C@H](Cc4ccccc4)NC(=O)[C@H](CCC(=O)O)NC(=O)[C@H](Cc4ccccc4)NC(=O)[C@@H](N)CO)[C@@H]3C(=O)N21)[C@@H](C)O)C(=O)O` [SFEFPppPTEDEL], the Kd at VASP/EVH1 domain [2] is 29.3 to 33.3 µM; at VASP/EVH1 domain [1], 47 ± 14 µM; on VASP/EVH1 domain [3] it was 20 to 35 µM.
With `CC(C)C[C@H](NC(=O)[C@H](CCC(=O)O)NC(=O)[C@H](CC(=O)O)NC(=O)[C@H](CCC(=O)O)NC(=O)[C@@H](NC(=O)[C@@H]1CCCN1C(=O)[C@@H]1CCCN1C(=O)[C@@H]1CC[C@@H]2C=C[C@H]3CCN(C(=O)[C@H](Cc4ccccc4)NC(=O)[C@H](CCC(=O)O)NC(=O)[C@H](Cc4ccccc4)NC(=O)[C@@H](N)CO)[C@@H]3C(=O)N21)[C@@H](C)O)C(=O)O` [SFEFppPPTEDEL], the Kd on VASP/EVH1 domain [1] was 82 ± 30 µM.
Still for that read-out and setting: with `CC(C)C[C@H](NC(=O)[C@H](CCC(=O)O)NC(=O)[C@H](CC(=O)O)NC(=O)[C@H](CCC(=O)O)NC(=O)[C@@H](NC(=O)[C@@H]1CC[C@@H]2C=C[C@H]3CCN(C(=O)[C@@H]4CC[C@@H]5C=C[C@H]6CCN(C(=O)[C@H](Cc7ccccc7)NC(=O)[C@H](CCC(=O)O)NC(=O)[C@H](Cc7ccccc7)NC(=O)[C@@H](N)CO)[C@@H]6C(=O)N54)[C@@H]3C(=O)N21)[C@@H](C)O)C(=O)O` [SFEFppppTEDEL] the figure was 45 ± 15 µM.
Regarding FPPPPT [FPPPPT], the equilibrium dissociation constant (Kd) on Mena/EVH1 domain was 417 µM. The “binding affinity KD” value on VASP/EVH1 domain [4] is recorded as “no measurable affinity”.
